In the supplement of paper PMC8967900:

Legend:
Assay in all cases: selective drug sensitivity score (sDSS, relative to normal bone marrow) (sDSS (score)); higher = more potent and effective on the cell line relative to normal bone marrow cells
Conditions in all cases: 72 h
[1] = system: ALL-PO
[2] = system: CCRF-CEM
[3] = system: COG-LL-319h
[4] = system: COG-LL-394h
[5] = system: DND-41
[6] = system: HAL-01
[7] = system: KASUMI-10
[8] = system: KASUMI-2
[9] = system: LC4-1
[10] = system: MHH-CALL-2
[11] = system: MHH-CALL-3
[12] = system: MN-60
[13] = system: MOLT-14
[14] = system: MOLT-4
[15] = system: NALM-6
[16] = system: P12-ICHIKAWA
[17] = system: PF-382
[18] = system: REH
[19] = system: RPMI-8402
[20] = system: SEM cells
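Further: ALL cell lines in 384-well plates, five doses spanning 10,000-fold, each plate scaled between vehicle and 100 µmol/L benzalkonium chloride controls, sDSS an adapted area-under-curve metric.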

Row | Structure (SMILES) | selective drug sensitivity score [1] | selective drug sensitivity score [2] | selective drug sensitivity score [3] | selective drug sensitivity score [4] | selective drug sensitivity score [5] | selective drug sensitivity score [6] | selective drug sensitivity score [7] | selective drug sensitivity score [8] | selective drug sensitivity score [9] | selective drug sensitivity score [10] | selective drug sensitivity score [11] | selective drug sensitivity score [12] | selective drug sensitivity score [13] | selective drug sensitivity score [14] | selective drug sensitivity score [15] | selective drug sensitivity score [16] | selective drug sensitivity score [17] | selective drug sensitivity score [18] | selective drug sensitivity score [19] | selective drug sensitivity score [20]
1 | CNS(=O)(=O)Nc1nccc(Cc2c(C)c3ccc(Oc4ncccn4)cc3oc2=O)c1F (top concentration 1000 nM) | -1.18 | -1.18 | -1.18 | 1.12 | 3.92 | 0.82 | -1.18 | 1.12 | -0.18 | 1.32 | -1.18 | -1.18 | -0.98 | -1.18 | -0.88 | -0.98 | -0.18 | -0.38 | 0.12 | 1.82
2 | C[C@H]1Oc2cc(cnc2N)-c2c(nn(C)c2C#N)CN(C)C(=O)c2ccc(F)cc21 (top concentration 1000 nM) | -0.72 | -0.72 | 7.38 | -0.72 | -0.72 | 4.18 | -0.72 | 4.68 | -0.72 | -0.72 | -0.72 | -0.72 | -0.72 | -0.72 | -0.72 | -0.72 | -0.72 | -0.72 | -0.72 | -0.72
3 | CCc1cncnc1N1CCN(Cc2nc3cc(C(F)(F)F)ccc3[nH]2)CC1 (top concentration 10000 nM) | 3.86 | 0.36 | 1.46 | 4.56 | 0.56 | 4.76 | 2.76 | 2.76 | 4.16 | 5.56 | 2.46 | 1.96 | 0.16 | 2.16 | 1.96 | 3.66 | 2.96 | 6.26 | 5.96 | 9.76
4 | CN(C)CC#Cc1ccc(OCCCc2sc(N3CCc4cccc(C(=O)Nc5nc6ccccc6s5)c4C3)nc2C(=O)O)c(F)c1 (top concentration 10000 nM) | 0.46 | 32.8 | 21.7 | 17 | 34 | 2.06 | 11 | 5.86 | 0.36 | 1.66 | 19 | -3.64 | 12.3 | 34.8 | 11.3 | 39.3 | 24.4 | -1.84 | 27.9 | -0.24
5 | O=C(NC[C@H](O)CN1CCc2ccccc2C1)c1cc(NC2COC2)ncn1 (top concentration 10000 nM) | -0.06 | -0.06 | 9.34 | -0.06 | -0.06 | -0.06 | -0.06 | -0.06 | -0.06 | 0.04 | -0.06 | -0.06 | -0.06 | 2.74 | -0.06 | 0.24 | -0.06 | -0.06 | -0.06 | -0.06
6 | O=C1Cc2cc(C(=O)NC3C[C@H]4CC[C@@H](C3)N4S(=O)(=O)CC3CCN(CCCC(F)(F)F)CC3)c(Cl)cc2N1 (stereo not given in full) (top concentration 10000 nM) | 0 | 0 | 0 | 0 | 0 | 0 | 0 | 0 | 0 | 0 | 0 | 0 | 0 | 0 | 0 | 0 | 0 | 3.5 | 0 | 0
7 | CC/C(=C(\c1ccc(O)cc1)c1ccc(OCCN(C)C)cc1)c1ccccc1 [4-hydroxytamoxifen] (top concentration 10000 nM) | 3.12 | 1.52 | -4.48 | 2.12 | 2.72 | 1.92 | -1.78 | -3.78 | 0.72 | 2.12 | -2.58 | -2.08 | 0.32 | 0.62 | 0.02 | 2.02 | 2.52 | 4.02 | 2.62 | 1.62
8 | COCC1(CO)C(=O)C2CCN1CC2 (stereo not given) [APR-246] (top concentration 10000 nM) | -1.16 | -0.86 | 7.44 | -1.16 | -1.16 | -0.36 | -1.16 | -1.16 | 0.74 | 6.84 | 0.14 | -1.16 | -1.16 | -1.16 | 1.14 | -1.16 | -1.16 | -1.16 | -1.16 | -1.16
9 | Cc1sc2c(c1C)C(c1ccc(Cl)cc1)=N[C@@H](CC(=O)Nc1ccc(OCCOCCOCCOCCNc3cccc4c3C(=O)N(C3CCC(=O)NC3=O)C4=O)cc1)c1nnc(C)n1-2 (stereo not given in full) [ARV-825] (top concentration 300 nM) | 2.34 | -2.66 | 4.04 | -0.96 | 0.84 | -12.1 | 3.84 | -4.46 | 3.64 | 4.94 | 7.44 | -1.56 | -0.86 | -10.4 | 1.24 | -7.46 | 0.14 | -0.26 | 1.04 | 2.24
10 | COc1cc(OC2CCN(C)CC2)ccc1Nc1ncc2c(n1)n(C1CCCC1)c(=O)n2C [AZ3146] (top concentration 10000 nM) | 3.44 | 0.94 | 7.04 | 1.04 | 0.24 | 2.24 | 3.64 | -4.16 | 3.14 | 1.94 | -4.16 | -0.16 | 2.04 | 1.84 | 3.04 | 0.64 | -0.86 | 1.14 | 1.94 | 2.04
11 | CN(C)CCCOc1ccc(-c2ccc3ncc4c(c3c2)n(C2CCOCC2)c(=O)n4C)cn1 [AZD0156] (top concentration 1000 nM) | 2.24 | 1.74 | 3.84 | -0.06 | 4.14 | 0.64 | -0.06 | 2.84 | 1.04 | 1.84 | -0.06 | -0.06 | 0.14 | -0.06 | -0.06 | 0.14 | 0.64 | 0.84 | 0.14 | 1.14
12 | N#Cc1ccc2[nH]c(O)c(-c3ccc(CN4CCOCC4)cn3)c2c1 [AZD-1080] (top concentration 10000 nM) | 2.18 | -0.02 | 6.28 | -0.02 | -0.02 | -0.02 | 1.88 | 3.48 | 3.28 | -0.02 | 5.18 | -0.02 | -0.02 | -0.02 | 1.78 | -0.02 | -0.02 | 8.28 | -0.02 | 4.58
13 | CN(C)C/C=C/C(=O)Nc1cc2c(Nc3ccc(F)c(Cl)c3)ncnc2cc1O[C@H]1CCOC1 [Afatinib] (top concentration 1000 nM) | -0.64 | 0.66 | -0.84 | -0.84 | -0.84 | 3.06 | -0.84 | -0.84 | -0.84 | 0.16 | 3.96 | -0.84 | -0.84 | -0.84 | -0.84 | -0.74 | -0.84 | 5.46 | -0.84 | 0.96
14 | O=C(Nc1ccc(OC(F)(F)Cl)cc1)c1cnc(N2CC[C@@H](O)C2)c(-c2cc[nH]n2)c1 [Asciminib] (top concentration 1000 nM) | -0.28 | -1.98 | 10 | 4.52 | 0.22 | -0.88 | -1.98 | -1.98 | -1.98 | -1.98 | -0.98 | -1.98 | -0.28 | 1.12 | 0.42 | -1.98 | -1.78 | -1.98 | -1.98 | 5.72
15 | CC[C@@H]1C(=O)N(C)c2cnc(Nc3ccc(C(=O)NC4CCN(C)CC4)cc3OC)nc2N1C1CCCC1 [BI-2536] (top concentration 1000 nM) | 15.9 | 20.1 | 23.6 | 9.44 | 15.6 | 3.64 | 11.9 | 14.1 | 20.1 | 16.2 | 7.94 | -0.16 | 19 | 19.6 | 13.4 | 20.9 | 18.7 | 16.4 | 22.4 | 20.7
16 | Cc1ccc(NC(=O)c2ccc(CN3CC[C@H](N(C)C)C3)c(C(F)(F)F)c2)cc1Nc1nccc(-c2cncnc2)n1 [Bafetinib] (top concentration 1000 nM) | 0 | 0 | 1.9 | 3 | 1 | 0 | 0 | 0.3 | 0.4 | 0 | 0 | 4 | 0.3 | 0 | 0 | 0 | 0 | 0.2 | 0 | 0
17 | CC[C@H](NC(=O)[C@H](C)NC)C(=O)N1C[C@@H](O)C[C@H]1Cc1c(-c2[nH]c3cc(F)ccc3c2C[C@@H]2C[C@H](O)CN2C(=O)[C@H](CC)NC(=O)[C@H](C)NC)[nH]c2cc(F)ccc12 [Birinapant] (top concentration 1000 nM) | -1.9 | 1.4 | 14.5 | 16.2 | -5.1 | -5.1 | -4.9 | 7.8 | -5.1 | 8.7 | -5.1 | 1.4 | -5.1 | -5.1 | -4.2 | -5.1 | -4.6 | 1.1 | -3.2 | -5.1
